According to patent US11186564B2, “Dual NAV1.2/5HT2a inhibitors for treating CNS disorders” (Sunovion Pharmaceuticals Inc., priority 2016, dated 2021):
Read-outs that look alike come from different tables or passages of the source.

Target: T1, recombinant human serotonin receptor 5-HT2A (Homo sapiens, UniProt P28223)
T1 construct: expressed in transfected cells; method B: loaded with Ca2+ dye
Test: 5-HT2A antagonist Ca2+ assay in CHO-K1 cells (method A aequorin luminescence / method B FLIPR fluorescence)
Assay type: cell-based
Conditions: antagonist mode vs EC80 of reference agonist, method A or B
Description: The methods utilized to assess the inhibitory activity of compounds on recombinant human serotonin receptor 5-HT2A was based upon previously published approaches [Jerman J C, Brough S J, Gager T, Wood M, Coldwell M C, Smart D, Middlemiss D N. Pharmacological characterisation of human 5-HT2 receptor subtypes. European Journal of Pharmacology 2001 Feb. 23; 414(1):23-30; Le Poul E, Hisada S, Mizuguchi Y, Dupriez V J, Burgeon E, Detheux M. Adaptation of aequorin functional assay to high throughput screening. J Biomolecular Screening 2002 February; 7(1):57-65.] The 5-HT2A receptor signals through Gq-phospholipase signaling cascade, which leads to a transient increase in free intracellular […] concentration. Both 5-HT2A assay methods rely upon monitoring these changes in Ca^2+ concentration.
In method A [Le Poul E, Hisada S, Mizuguchi Y, Dupriez V J, Burgeon E, Detheux M. (2002)], CHO-K1 cells engineered to stably co-express both recombinant human 5-HT2A and mitochondrial apoaequorin are used. […] For agonist testing, 50 microliters of cell suspension is mixed with 50 microliters of a solution containing test compound or reference agonist in a 96-well standard geometry microtiter plate. The resulting emission of light was recorded using a Hamamatsu Functional Drug Screening System 6000 (FDSS 6000) luminometer. For antagonist testing, 100 microliters of the solution of reference agonist (to yield an agonist concentration, EC80, sufficient to cause the cells to generate an 80% maximal luminescence response in the absence of any antagonist) is injected into the mix of cells and test compound, 15 minutes after the first injection. The resulting emission of light is recorded using Hamamatsu FDSS 6000 luminometer. IC50 values are calculated (from compound concentration dependent inhibition of agonist-induced 5-HT2A-dependent light emission) by non-linear least squares regression of the data (percent inhibition) onto equation (1) above.
In method B [Jerman J C, Brough S J, Gager T, Wood M, Coldwell M C, Smart D, Middlemiss D N. (2001)], CHO-K1 cells which had been engineered to stably co-express recombinant human 5-HT2A are used in assay done similarly to method A. In method B, the cells are loaded with a fluorogenic Ca^2+ indicator dye by pre-incubation. Addition of the reference agonist serotonin causes a transient increase in fluorescence in a suspension of the loaded cells, which can be detected using the Molecular Devices fluorometric imaging plate reader (FLIPR), a high-throughput platform for 96-well cell-based assays. Addition of test compounds that are 5-HT2A antagonists, prior to the addition of the agonist (to yield an agonist concentration, EC80, sufficient to cause the cells to generate an 80% maximal fluorescence response in the absence of any antagonist), reduces the amount of fluorescence detected by the FLIPR upon agonist addition. IC50 values are calculated (from compound concentration dependent inhibition of agonist-induced 5-HT2A-dependent fluorescence) by non-linear least squares regression of the data (percent inhibition) onto equation (1) above.

T1 sequence (P28223 whole entry): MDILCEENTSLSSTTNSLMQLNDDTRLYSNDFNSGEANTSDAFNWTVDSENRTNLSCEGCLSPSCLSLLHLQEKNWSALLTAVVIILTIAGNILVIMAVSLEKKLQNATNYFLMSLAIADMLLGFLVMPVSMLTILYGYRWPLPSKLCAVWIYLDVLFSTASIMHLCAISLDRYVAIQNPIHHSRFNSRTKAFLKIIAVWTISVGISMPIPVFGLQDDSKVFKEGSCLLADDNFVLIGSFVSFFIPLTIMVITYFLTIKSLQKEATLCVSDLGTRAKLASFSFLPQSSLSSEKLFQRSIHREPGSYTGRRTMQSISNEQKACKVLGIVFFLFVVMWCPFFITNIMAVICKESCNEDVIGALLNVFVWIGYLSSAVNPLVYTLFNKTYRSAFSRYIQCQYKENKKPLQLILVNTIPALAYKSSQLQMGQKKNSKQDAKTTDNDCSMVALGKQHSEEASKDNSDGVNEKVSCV

Compound	IC50 (read-out: 5HT2A IC50)	IC50 (5HT2A IC50, μM)
OC(CO[C@H]1CCc2ccccc21)CN1CC[C@H](Oc2ccc(F)cc2)C1 (stereo partly drawn) [Example 43, 1-(((S)-2,3-dihydro-1H-inden-1-yl)oxy)-3-((S)-3-(4-fluorophenoxy)pyrrolidin-1-yl)propan-2-ol]	2.08 µM	
COc1ccccc1OC1CCN(CC2Cc3ccccc3C2)[C@@H](C)C1 (single isomer, unassigned) [Example 148]	1.44 µM	
Fc1ccc(OC2COCCN(CC3Cc4cccnc4C3)C2)cc1 (centres unmarked) [Example 279, 4-((6,7-dihydro-5H-cyclopenta[b]pyridin-6-yl)methyl)-6-(4-fluorophenoxy)-1,4-oxazepane]	> 10 µM	
c1ccc(N2[C@@H]3C[C@H]2CN(CC2CCc4ccccc42)C3)cc1 (stereo partly drawn) [Example 293, (1R,5S)-3-((2,3-dihydro-1H-inden-1-yl)methyl)-6-phenyl-3,6-diazabicyclo[3.1.1]heptane]	1.02 µM	
N#Cc1ccc(OC2CCN(CC3Cc4cccnc4C3)CC2)cc1 (centres unmarked) [Example 156, 4-((1-((6,7-dihydro-5H-cyclopenta[b]pyridin-6-yl)methyl)piperidin-4-yl)oxy) benzonitrile]	2.01 µM	
O[C@@H](COC1CCCCC1)CN1C[C@H]2CC[C@@H](C1)N2c1ccccc1 [Example 301, (R)-1-(cyclohexyloxy)-3-((1R,5S)-8-phenyl-3,8-diazabicyclo[3.2.1]octan-3-yl)propan-2-ol]	> 10 µM	
c1ccc(N2C[C@@H]3C[C@H]2CCN3CC2Cc3cccnc3C2)cc1 (stereo partly drawn) [Example 320, 6-(((1S,5R)-6-phenyl-2,6-diazabicyclo[3.2.1]octan-2-yl)methyl)-6,7-dihydro-5H-cyclopenta[b]pyridine]	> 10 µM	
COc1ccc2c(c1)C(CN1CCC(Oc3cccnc3)CC1)CC2 (centres unmarked) [Example 109, 3-((1-((6-methoxy-2,3-dihydro-1H-inden-1-yl)methyl)piperidin-4-yl)oxy)pyridine]	1.92 µM	
Fc1ccc(O[C@H]2CCN(CC3CCc4ncccc43)C2)cc1 (stereo partly drawn) [Example 4, 5-(((S)-3-(4-fluorophenoxy)pyrrolidin-1-yl)methyl)-6,7-dihydro-5H-cyclopenta[b]pyridine]	1.45 µM	
COC(CCN1CCC(Oc2ccccc2)CC1)c1ccccc1 (centres unmarked) [Example 226, 1-(3-methoxy-3-phenylpropyl)-4-phenoxypiperidine]	0.02 µM	
Fc1ccc(O[C@H]2CCN(CC3CCc4ccncc43)C2)cc1 (stereo partly drawn) [Example 6, 7-(((S)-3-(4-fluorophenoxy)pyrrolidin-1-yl)methyl)-6,7-dihydro-5H-cyclopenta[c]pyridine]	3 µM	
OC(CO[C@H]1CCc2ccccc21)CN1CCC(Oc2ccc(F)cc2)CC1 (stereo in doubt) [Example 237, (R)-1-(((S)-2,3-dihydro-1H-inden-1-yl)oxy)-3-(4-(4-fluorophenoxy)piperidin-1-yl)propan-2-ol]	0.6 µM	
O[C@@H](CO[C@@H]1CCCc2ccccc21)CN1CCN(Cc2ccccc2)CC1 [Example 84, (R)-1-(4-benzylpiperazin-1-yl)-3-(((R)-1,2,3,4-tetrahydronaphthalen-1-yl)oxy)propan-2-ol]	> 16.7 µM	
COCc1cccc(OC2CCN(CC3Cc4cccnc4C3)CC2)c1 (centres unmarked) [Example 152, 6-((4-(3-(methoxymethyl)phenoxy)piperidin-1-yl)methyl)-6,7-dihydro-5H-cyclopenta[b]pyridine]	0.22 µM	
COc1ccccc1O[C@H]1CCN(CC2Cc3ccccc3C2)[C@@H](C)C1 [Example 143, (2S,4S)-1-((2,3-dihydro-1H-inden-2-yl)methyl)-4-(2-methoxyphenoxy)-2-methylpiperidine]	0.08 µM	
O[C@@H](COC1CCCCC1)CN1[C@@H]2CC[C@H]1CN(c1ccc(F)cc1)C2 [Example 290, (R)-1-(cyclohexyloxy)-3-((1R,5S)-3-(4-fluorophenyl)-3,8-diazabicyclo[3.2.1]octan-8-yl)propan-2-ol]		0.002 µM

More lines, main results first:

IC50 (read-out: 5HT2A IC50)	Compound	IC50 (5HT2A IC50, μM)
0.26 µM	COCc1cccc(OC2CCN(CC3CCOc4ccccc43)CC2)c1 (centres unmarked) [Example 163, 1-(chroman-4-ylmethyl)-4-(3-(methoxymethyl)phenoxy)piperidine]	
2.15 µM	c1ccc(CN2CCC3(CCc4ccccc4O3)CC2)cc1 [Example 415, 1′-benzylspiro[chromane-2,4′-piperidine]]	
0.74 µM	c1ccc2c(c1)CCC1(CCN(CC3CCc4cnccc43)CC1)O2 (centres unmarked) [Example 408, 1′-((6,7-dihydro-5H-cyclopenta[c]pyridin-5-yl)methyl)spiro[chromane-2,4′-piperidine]]	
> 12.9 µM	Fc1ccc(O[C@H]2CCCN(CCC3CCOc4ccccc43)C2)cc1 (stereo partly drawn) [Example 263, (3S)-1-(2-(chroman-4-yl)ethyl)-3-(4-fluorophenoxy)piperidine]	
1.63 µM	Fc1ccc(O[C@@H]2CCCN(CCC3CCOc4ccccc43)C2)cc1 (stereo partly drawn) [Example 262, (3R)-1-(2-(chroman-4-yl)ethyl)-3-(4-fluorophenoxy)piperidine]	
> 10 µM	c1ccc2c(c1)CC1(CCN(CC3COc4ccccc43)CC1)O2 (centres unmarked) [Example 395, 1′-((2,3-dihydrobenzofuran-3-yl)methyl)-3H-spiro[benzofuran-2,4′-piperidine]]	
1.94 µM	OC(COC1CCCCC1)CN1CCC2(CC1)CCN(c1ccccc1)C2 (centres unmarked) [Example 354, 1-(cyclohexyloxy)-3-(2-phenyl-2,8-diazaspiro[4.5]decan-8-yl)propan-2-ol]	
0.12 µM	CC1(C)Oc2ccccc2C1CN1CCC(Oc2ccc(F)cc2)CC1 (centres unmarked) [Example 135, 1-((2,2-dimethyl-2,3-dihydrobenzofuran-3-yl)methyl)-4-(4-fluorophenoxy)piperidine]	
0.29 µM	CC1(C)Oc2ccccc2C1CN1CCC(Oc2ccccc2F)CC1 (centres unmarked) [Example 133, 1-((2,2-dimethyl-2,3-dihydrobenzofuran-3-yl)methyl)-4-(2-fluorophenoxy)piperidine]	
2.34 µM	COc1cccc(O[C@H]2CCN(CCN3CCc4ccccc4C3=O)C2)c1 [Example 22, (S)-2-(2-(3-(3-methoxyphenoxy)pyrrolidin-1-yl)ethyl)-3,4-dihydroisoquinolin-1(2H)-one]	
> 13.3 µM	OC1(CN2CCC[C@H](Oc3ccc(F)cc3)C2)COCc2ccccc21 (stereo partly drawn) [Example 259, 4-(((S)-3-(4-fluorophenoxy)piperidin-1-yl)methyl)isochroman-4-ol]	
> 16.7 µM	O=C1c2ccccc2CCN1CCN1CC[C@H](Oc2cccnc2)C1 [Example 24, (S)-2-(2-(3-(pyridin-3-yloxy)pyrrolidin-1-yl)ethyl)-3,4-dihydroisoquinolin-1(2H)-one]	
2.8 µM	COc1ccc(O[C@@H]2CCN(CCN3CCc4ccccc4C3=O)C2)cc1 [Example 27, (R)-2-(2-(3-(4-methoxyphenoxy)pyrrolidin-1-yl)ethyl)-3,4-dihydroisoquinolin-1(2H)-one]	
2.81 µM	C[C@@H]1C[C@]2(CCc3ccccc3O2)CCN1CCN1CCc2ccccc2C1=O [Example 423, 2-(2-((2S,2′R)-2′-methylspiro[chromane-2,4′-piperidin]-1′-yl)ethyl)-3,4-dihydroisoquinolin-1(2H)-one]	
0.05 µM	O[C@H](COC1CCCCC1)CN1CCC(Oc2ccccc2)CC1 [Example 233, (S)-1-(cyclohexyloxy)-3-(4-phenoxypiperidin-1-yl)propan-2-ol]	
0.56 µM	CC(CN1CCc2ccccc2C1=O)N1CCC(Oc2ccc(F)cc2)CC1 (centres unmarked) [Example 204, 2-(2-(4-(4-fluorophenoxy)piperidin-1-yl)propyl)-3,4-dihydroisoquinolin-1(2H)-one]	
